Experimental data as given in US20240189283A1, “L-ERGOTHIONEINE-CONTAINING COMPOSITION” (NAGASE & CO., LTD., priority 2021, published 2024).
Like-named read-outs stand apart in the source and are kept apart here.

How the values were obtained:
[1] = HPLC area of SRH, SRH dehydrated dimer and EGT before and 4 days after concentration (Reference Example); assay type: physicochemical; conditions: sample with 15 parts by mass SRH per 100 parts EGT, PDA 210 nm; for HPLC area, 4 days after concentration: concentrated at 30° C., left at room temperature 4 days
Description: In an SRH 0.108 w/w % aqueous solution (1 mL) was dissolved 7.1 mg of EGT (manufactured by Tetrahedron) to prepare a sample having 15 parts by mass of SRH with respect to 100 parts by mass of EGT.
For HPLC analysis, 100 μL of the sample was diluted 10 times with water. The remaining 900 μL was concentrated under reduced pressure using an evaporator at 30° C. After the mixture was left to stand at room temperature for 4 days, the mixture was dissolved in 0.9 mL of water. For HPLC analysis, 100 μL of the solution was diluted 10 times with water.
HPLC analysis was performed under the following conditions.
Column: YMC-Pack ODS-AQ S-5 μM, 12 nm, 250×4.6 mm I.D.
Flow rate: 0.5 mL/min, Temperature: 30° C.
Eluent: 0.1% aqueous formic acid solution
Retention time: SRH: around 6.6 minutes; SRH dehydrated dimer: around 7.5 minutes; EGT: around 8.7 minutes.

Escherichia coli = conditions: EGT at 5 mM and 50 mM; cited from earlier work
OT-II CD4+ T cells = conditions: 30 mM EGT; co-culture with F4/80 macrophages; cited from earlier work
[2] = tested on: mouse bone marrow-derived macrophages; conditions: cited from earlier work; for production of cytokines (IL-6, IL-12p40, IL-1β, IL-10): toll-like receptor ligand stimulation

Row | HPLC area, before concentration [1] | HPLC area, 4 days after concentration [1] | Structure (SMILES) | growth of Escherichia coli (Escherichia coli) | Th17 polarization of OT-II CD4+ T cells (OT-II CD4+ T cells) | production of cytokines (IL-6, IL-12p40, IL-1β, IL-10) ([2]; 1 mM EGT) | production of cytokines (IL-6, IL-12p40, IL-1β, IL-10) ([2]; 10 mM EGT) | concentration that activates macrophages [2] [mM]
1 | 156690 | 108189 | N[C@@H](CCSC1O[C@H](CO)[C@@H](O)[C@H]1O)C(=O)O (stereo partly drawn) [SRH, S-ribosylhomocysteine] | – | – | – | – | –
2 | 13959268 | 14131254 | C[N+](C)(C)[C@@H](Cc1c[nH]c(=S)[nH]1)C(=O)[O-] [EGT, N,N,N-trimethyl-L-2-thiohistidine] | suppresses the growth | promoted | not | promoted | ≥ 10
